Among the data in PubChem BioAssay (NCI) are TGI and GI50 values, retold here.

Several values for one entry are separate records, joined by “and”; a condition that tells them apart may be missing. Identical values can stand only once.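 Five concentrations, 48 hours, 96-well plates. GI50 = concentration required for 50% inhibition of growth. The concentration for full growth arrest is given as TGI.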

Among the test systems are OVCAR-5 ovarian; CCRF-CEM leukemia; HOP-62 NSCLC; CAKI-1 renal; MALME-3M melanoma; SNB-75 CNS; HT29 colon; MCF7 breast; BT-549 breast; OVCAR-8 ovarian.
Holding throughout (assay): NCI tumour cell line growth inhibition, 48 h

For the compound `COC12C=CC(C=C1C#N)CC2` (stereo not given) (tested in a mixture with another compound), the TGI with OVCAR-5 ovarian, in the test on CCRF-CEM leukemia, in the test on HOP-62 NSCLC, with CAKI-1 renal, with MALME-3M melanoma and with SNB-75 CNS was above 100 µM throughout. The TGI in the test with HT29 colon, with MCF7 breast, with BT-549 breast and in the test with OVCAR-8 ovarian was above 100 µM each time.

As to `CC(=O)N(C(C)=O)n1c(Cc2ccc(C)cc2)nn(C(C)=O)c1=O`, the TGI with OVCAR-5 ovarian, in the test with CCRF-CEM leukemia, in the test on HOP-62 NSCLC, in the test on CAKI-1 renal, in the test on MALME-3M melanoma and in the test with SNB-75 CNS was above 100 µM each time. For the same compound, the TGI in the test on HT29 colon, in the test on MCF7 breast, in the test with BT-549 breast and in the test on OVCAR-8 ovarian was above 100 µM throughout.

`Cc1cc(N(CCC#N)CCC#N)ccc1/C=C1\SC(=S)NC1=O`: the TGI was above 100 µM with OVCAR-5 ovarian; above 100 µM with CCRF-CEM leukemia; above 100 µM with HOP-62 NSCLC; above 100 µM in the test on CAKI-1 renal; above 100 µM in the test with MALME-3M melanoma; 93.6 µM with SNB-75 CNS. Further, the TGI with HT29 colon, in the test with MCF7 breast, with BT-549 breast and with OVCAR-8 ovarian was above 100 µM each time.

For the compound `CN(C)CC1CCC/C(=C\c2ccc(OC(=O)/C=C/c3ccc(Cl)c(Cl)c3)cc2)C1=O` (stereo not given), the TGI with OVCAR-5 ovarian was above 65.3 µM; in the test with CCRF-CEM leukemia it was 1.77 µM; in the test with HOP-62 NSCLC, 14.8 µM; in the test on CAKI-1 renal, 5.81 µM; in the test with MALME-3M melanoma it was 25.4 µM; in the test on SNB-75 CNS, 68.5 µM. Further, the TGI stood at 4.68 µM with HT29 colon, 5.79 µM in the test on MCF7 breast, 8.01 µM in the test on BT-549 breast and 28.5 µM in the test on OVCAR-8 ovarian.

With `O=C1CS(=O)(=O)C(c2cccc(Oc3ccccc3)c2)N1c1ccccc1` (stereo not given), the TGI is above 100 µM in the test on OVCAR-5 ovarian; above 100 µM in the test on CCRF-CEM leukemia; above 100 µM with HOP-62 NSCLC; 58.3 µM in the test with CAKI-1 renal; 42.6 µM in the test on MALME-3M melanoma; above 100 µM with SNB-75 CNS. Moreover, the TGI in the test with HT29 colon was above 100 µM; in the test on MCF7 breast it was 33.3 µM; in the test with BT-549 breast, 49.1 µM; in the test with OVCAR-8 ovarian, above 100 µM.

For `COC(=O)NC(Cc1ccccc1)NC(C)=O` (stereo not given), the TGI with OVCAR-5 ovarian, in the test with CCRF-CEM leukemia, with HOP-62 NSCLC, in the test on CAKI-1 renal, in the test on MALME-3M melanoma and in the test with SNB-75 CNS was above 100 µM each time. The TGI with HT29 colon, in the test with MCF7 breast, in the test on BT-549 breast and in the test with OVCAR-8 ovarian was above 100 µM throughout.

Take `O=C(c1ccc(O)c([N+](=O)[O-])c1)c1ccc(O)c([N+](=O)[O-])c1`: the TGI in the test with OVCAR-5 ovarian is above 100 µM; in the test with CCRF-CEM leukemia, above 100 µM; in the test with HOP-62 NSCLC, above 100 µM; in the test on CAKI-1 renal, above 100 µM; with MALME-3M melanoma, 98.6 µM; with SNB-75 CNS it was 85.7 µM. Further, the TGI in the test on HT29 colon, in the test with MCF7 breast, in the test on BT-549 breast and in the test on OVCAR-8 ovarian was above 100 µM each time.

Turning to `CCN(CC)CCOC(=O)Cc1cccc2c(=O)cc(-c3ccccc3)oc12`, the GI50 was 137 µM in the test with OVCAR-5 ovarian; 336 µM in the test on CCRF-CEM leukemia; 25.9 µM in the test on HOP-62 NSCLC; 252 µM with CAKI-1 renal; 64.7 µM in the test with MALME-3M melanoma; 13 µM in the test on SNB-75 CNS. The GI50 in the test with HT29 colon was 530 µM; in the test with MCF7 breast it was 46.9 µM. The TGI in the test with OVCAR-5 ovarian was 62.5 µM and > 197 µM; in the test on HOP-62 NSCLC, 62.5 µM and > 144 µM; in the test on MALME-3M melanoma it was 62.5 µM and 165 µM; in the test with SNB-75 CNS it was 50.1 µM and 126 µM; in the test with MCF7 breast, 62.5 µM and > 216 µM; with BT-549 breast, 61.7 µM. For the same compound, the TGI in the test with OVCAR-8 ovarian was 62.5 µM and > 254 µM.

For the compound `O=C1CS[C@@](CC(c2ccc(Cl)cc2)c2ccc(Cl)cc2)(c2ccc(Cl)cc2)N1`, the TGI with OVCAR-5 ovarian is above 100 µM; in the test on CCRF-CEM leukemia it was above 100 µM; with HOP-62 NSCLC, 82 µM; in the test with CAKI-1 renal it was above 100 µM; in the test with MALME-3M melanoma it was 82.6 µM; with SNB-75 CNS, above 100 µM. For the same compound, the TGI with HT29 colon is above 100 µM; with MCF7 breast, 26.4 µM; in the test with BT-549 breast, above 100 µM; in the test with OVCAR-8 ovarian, above 100 µM.

As for `CCCc1nnc2sc(COc3cc(Cl)c(OCc4nn5c(CCC)nnc5s4)cc3Cl)nn12`, the TGI with OVCAR-5 ovarian is above 100 µM; with CCRF-CEM leukemia it was 46.8 µM; in the test with HOP-62 NSCLC, above 100 µM; in the test with CAKI-1 renal it was above 100 µM; in the test with MALME-3M melanoma it was above 100 µM; in the test with SNB-75 CNS, 45.3 µM. The TGI with HT29 colon was above 100 µM; with MCF7 breast, 72.9 µM; in the test with BT-549 breast, above 100 µM; in the test on OVCAR-8 ovarian, above 100 µM.

For the compound `COc1cccc(C2SC(C)C(=O)N2CCc2cccs2)c1` (stereo not given), the GI50 in the test on OVCAR-5 ovarian was 4.05 µM; with CCRF-CEM leukemia, 3.01 µM; with HOP-62 NSCLC it was 3.12 µM; with CAKI-1 renal, 2.07 µM; in the test with MALME-3M melanoma, 2.19 µM; with SNB-75 CNS, 3.2 µM. In addition, the GI50 is 3.24 µM with HT29 colon, 3.02 µM in the test with MCF7 breast, 2.69 µM with BT-549 breast and 3.49 µM in the test on OVCAR-8 ovarian. The TGI with OVCAR-5 ovarian was determined as 20 µM; in the test with CCRF-CEM leukemia it was 22.3 µM; in the test on HOP-62 NSCLC, 14.9 µM; in the test with CAKI-1 renal, 10.5 µM; in the test on MALME-3M melanoma, 8.09 µM; in the test with SNB-75 CNS, 15.7 µM. The TGI turned out to be 12 µM in the test with HT29 colon, 12.7 µM in the test on MCF7 breast, 9.11 µM in the test on BT-549 breast and 14.3 µM with OVCAR-8 ovarian.

Consider `Cc1c(O)c(OC2OC(CO)C(O)C(O)C2O)cc2c1C=C[C@@H]1[C@@]2(C)C(=O)C[C@]2(C)[C@@H]([C@@](C)(O)C(=O)CCC(C)(C)O)[C@H](O)C[C@@]12C` (stereo not given in full), for which the TGI in the test on OVCAR-5 ovarian was 61.2 µM; with CCRF-CEM leukemia, above 100 µM; in the test on HOP-62 NSCLC, above 100 µM; in the test with CAKI-1 renal, 36.5 µM; with MALME-3M melanoma, 50 µM; in the test on SNB-75 CNS, 62.9 µM. For the same compound, the TGI in the test on HT29 colon was 83.1 µM; in the test with MCF7 breast, above 100 µM; in the test with BT-549 breast, 49.5 µM; in the test on OVCAR-8 ovarian it was above 100 µM.
